According to article PMC12541710, “Design, synthesis, and anticancer evaluation of novel pyrazole–thiophene hybrid derivatives as multitarget inhibitors of wild EGFR, mutant (T790M) EGFR, and VEGFR-2” (RSC Advances, 2025):
Where two headings read alike, the source gives them in different places.

Experiments:
MCF-7 [1] = assay: MTT cytotoxicity assay, MCF-7; details: Homo sapiens, MCF7, 24 h, read-out: In vitro Cytotoxicity (IC50, μM) MCF-7
Description: (§1) Two human cancer cell lines, HepG2 (human hepatocellular carcinoma) and MCF-7 (human breast adenocarcinoma), were used to test the produced compounds' cytotoxic activities. […] HepG2 cells, a hepatocellular carcinoma model, are widely used for studying VEGF/VEGFR-2-mediated angiogenesis and tumor progression.[76,77] Thus, these models provided a relevant system for assessing the potential EGFR/VEGFR inhibitory effects of our synthesized compounds. Accordingly, provide complementary systems for assessing the multitarget inhibitory potential of the synthesized pyrazole–thiophene hybrids against EGFR- and VEGFR-2-mediated oncogenic pathways. […] The cytotoxic activity of the synthesized pyrazole–thiophene derivatives was initially evaluated against two standard human cancer cell lines: MCF-7 and HepG2, which are widely used in cytotoxicity screening using the 3-(4,5-dimethylthiazol-2-yl)-2,5-diphenyltetrazolium bromide (MTT) assay (SI data, S1).[81–84] […]
(§2) S1. Analysis of Cytotoxic Inhibitory Concentration 50 (IC 50) with respect to HepG2 and MCF-7 The cytotoxic activity of the synthesized compounds was evaluated against MCF-7 and HepG2 cell lines using the 3-(4,5-dimethylthiazol-2-yl)-2,5-diphenyltetrazolium bromide (MTT) assay 2-5.
(§3) 100 µg/mL streptomycin, then seeded in 96 -well plates (1 × 10⁴ cells/well) and incubated at 37 °C with 5% CO₂ for 48 h. Test compounds, prepared by serial dilutio n, were added for 24 h, after which 20 µL of MTT solution (5 mg/mL) was introduced and incubated for 4 h. Formazan crystals were dissolved […]
(§4) Cell viability was ca lculated relative to untreated controls, and IC₅₀ values were obtained from dose – response curves by nonlinear regression. […]

HepG2 [2] = assay: MTT cytotoxicity assay, HepG2; details: Homo sapiens, HepG2, 24 h, read-out: In vitro Cytotoxicity (IC50, μM) HepG2
Description: as §1, §2, §3, §4

wild-type EGFR = biological target: T1, wild-type EGFR (Homo sapiens, UniProt P00533); assay: EGFR enzyme inhibition assay (wild type), Kinase-Glo kit; assay type: biochemical
T1 construct: purchased #40321
Description: (§5) Supporting Information (SI)
(§6) Formazan crystals were dissolved
(§7) response curves by nonlinear regression.
(§8) performed in 96 -well plates containing purified recombinant EGFR. Each we ll received 25 µL of
(§9) control). […] The reaction was initiated
(§10) After incubation, 50 µL of
(§11) min. Luminescence was then recorded using a microplate ELISA reader. Erlotinib served as t he
(§12) incubated for 5 min at room temperature.

EGFR mutant (T790M) = biological target: T2, EGFR mutant (T790M) (Homo sapiens, UniProt P00533, T790M); assay: EGFR enzyme inhibition assay (mutant T790M), Kinase-Glo kit; assay type: biochemical
T2 construct: purchased #40323
Description: as §5, §6, §7, §8, §9, §10, §11, §12

VEGFR-2 = biological target: T3, VEGFR-2 (Homo sapiens, UniProt P35968); assay: VEGFR-2 enzyme inhibition assay (HTScan Tyrosine Kinase Assay); assay type: biochemical
T3 construct: purchased Cell Signaling Technology #7788

MCF-7 cells [3] = assay: Cell cycle analysis by PI flow cytometry; assay type: cell-based, human; details: MCF-7, 10 µM, 48 h
Description: S3. Assessment of the Impact of Compound 14 on Cell Cycle Progression and Apoptosis in MCF - […]
MCF-7 breast cancer cells were seeded under standard culture conditions and treated with 10 µM of compound 14 for 48 h. After treatment, cells were harvested by trypsinization, washed with PBS, and fixed in ice-cold 66% ethanol at 4 °C for at least 2 h. Prior to analysis, cells were washed again with PBS and stained using the Propidium Iodide Flow Cytometry Kit ( ab139418, Abcam, UK) according to the manufacturer’s instructions. Staining was carried out with PI and RNase at 37 °C in the dark for 30 min. Cell cycle distribution (G0/G1, S, and G2/M phases) was then determined by measuring PI fluorescence intensity in the FL2 channel 8. […]

MCF-7 cells [4] = assay: Annexin V-FITC/PI apoptosis and necrosis assay; assay type: cell-based, human; details: MCF-7, 10 µM, 48 h
Description: Flow cytometric assay and the pro-apoptotic activity of compound 14 were assessed using the Annexin V-FITC Apoptosis Detection Kit (BioVision, USA; Cat. No. K101-25). The assay of compound 14 was performed in accordance with the reported procedure,[87,88] (SI data, S3). […]
The pro-apoptotic activity of compound 14 was assessed using the Annexin V -FITC Apoptosis Detection Kit (BioVision, USA; Cat. No. K101 -25) according to the manufacturer’s instructions.
MCF-7 cells (1–5 × 10⁵) were seeded and treated with 10 µM of 14 for 48 h. After treatment, both floating and adherent cells were collected by gentle trypsinization, washed with serum -containing medium, and resuspended in 500 µL of 1× Binding Buffer. Each sample was stained with 5 µL Annexin V-FITC and 5 µL propidium iodide (50 µg/mL) for 5 min at room temperature in the dark, then analyzed by flow cytometry. […]

MCF-7 [5] = details: reference drug value; read-out: In vitro Cytotoxicity (IC50, μM) MCF-7; cited from earlier work
HepG2 [6] = details: reference drug value; read-out: In vitro Cytotoxicity (IC50, μM) HepG2; cited from earlier work
[7] = test system: human pancreatic tumor (AsPC-1) and human glioblastoma (U251); design: method as in PMID 26492233; details: read-out: IC50 against AsPC-1 and U251; cited from earlier work

T2 sequence (P00533 25-1210 T790M): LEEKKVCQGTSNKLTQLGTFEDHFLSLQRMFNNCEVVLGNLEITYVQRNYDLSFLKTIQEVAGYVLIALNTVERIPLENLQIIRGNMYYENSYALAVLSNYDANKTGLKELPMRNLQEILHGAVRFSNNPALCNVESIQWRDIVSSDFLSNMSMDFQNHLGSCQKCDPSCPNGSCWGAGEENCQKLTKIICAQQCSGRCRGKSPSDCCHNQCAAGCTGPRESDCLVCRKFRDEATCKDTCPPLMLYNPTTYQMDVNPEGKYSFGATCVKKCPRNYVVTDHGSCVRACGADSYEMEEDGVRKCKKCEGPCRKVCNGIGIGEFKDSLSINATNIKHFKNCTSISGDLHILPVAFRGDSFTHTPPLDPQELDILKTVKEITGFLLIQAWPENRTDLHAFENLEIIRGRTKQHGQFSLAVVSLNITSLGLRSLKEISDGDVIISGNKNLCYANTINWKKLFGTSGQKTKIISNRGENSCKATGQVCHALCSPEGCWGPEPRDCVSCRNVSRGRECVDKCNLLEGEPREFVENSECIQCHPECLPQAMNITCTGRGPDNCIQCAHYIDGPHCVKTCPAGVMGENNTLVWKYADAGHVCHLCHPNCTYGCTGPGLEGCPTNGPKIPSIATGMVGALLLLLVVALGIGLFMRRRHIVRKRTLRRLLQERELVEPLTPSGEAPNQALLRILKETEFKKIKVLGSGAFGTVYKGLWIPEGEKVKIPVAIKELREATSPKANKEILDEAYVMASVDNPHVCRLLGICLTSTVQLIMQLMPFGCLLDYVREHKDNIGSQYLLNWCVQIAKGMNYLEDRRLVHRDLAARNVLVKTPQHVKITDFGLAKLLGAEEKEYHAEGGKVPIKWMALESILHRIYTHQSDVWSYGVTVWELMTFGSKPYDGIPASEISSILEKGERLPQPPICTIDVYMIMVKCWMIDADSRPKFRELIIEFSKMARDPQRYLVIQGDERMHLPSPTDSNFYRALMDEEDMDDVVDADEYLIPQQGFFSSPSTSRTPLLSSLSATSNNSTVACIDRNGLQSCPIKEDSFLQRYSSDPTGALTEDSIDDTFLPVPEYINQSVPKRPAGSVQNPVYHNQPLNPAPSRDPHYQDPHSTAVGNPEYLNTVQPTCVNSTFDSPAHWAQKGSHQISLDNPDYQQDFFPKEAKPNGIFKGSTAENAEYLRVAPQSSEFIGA
T3 sequence (P35968 789-1356 limits assumed): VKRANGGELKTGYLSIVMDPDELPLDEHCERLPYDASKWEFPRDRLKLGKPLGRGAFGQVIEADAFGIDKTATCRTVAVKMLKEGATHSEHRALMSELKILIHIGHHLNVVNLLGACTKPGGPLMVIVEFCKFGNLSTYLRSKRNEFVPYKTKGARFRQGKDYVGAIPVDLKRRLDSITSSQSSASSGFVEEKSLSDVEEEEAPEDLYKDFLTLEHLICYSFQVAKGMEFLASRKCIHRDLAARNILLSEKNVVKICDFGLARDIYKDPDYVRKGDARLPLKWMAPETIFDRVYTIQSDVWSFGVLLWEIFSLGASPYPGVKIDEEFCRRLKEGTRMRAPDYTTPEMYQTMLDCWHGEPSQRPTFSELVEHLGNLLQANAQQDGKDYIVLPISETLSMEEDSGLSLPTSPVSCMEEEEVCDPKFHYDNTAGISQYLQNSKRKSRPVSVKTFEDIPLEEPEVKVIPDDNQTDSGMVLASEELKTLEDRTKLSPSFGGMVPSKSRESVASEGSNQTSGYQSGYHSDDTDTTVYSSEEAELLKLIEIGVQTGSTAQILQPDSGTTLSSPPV
T1 sequence (P00533 25-1210): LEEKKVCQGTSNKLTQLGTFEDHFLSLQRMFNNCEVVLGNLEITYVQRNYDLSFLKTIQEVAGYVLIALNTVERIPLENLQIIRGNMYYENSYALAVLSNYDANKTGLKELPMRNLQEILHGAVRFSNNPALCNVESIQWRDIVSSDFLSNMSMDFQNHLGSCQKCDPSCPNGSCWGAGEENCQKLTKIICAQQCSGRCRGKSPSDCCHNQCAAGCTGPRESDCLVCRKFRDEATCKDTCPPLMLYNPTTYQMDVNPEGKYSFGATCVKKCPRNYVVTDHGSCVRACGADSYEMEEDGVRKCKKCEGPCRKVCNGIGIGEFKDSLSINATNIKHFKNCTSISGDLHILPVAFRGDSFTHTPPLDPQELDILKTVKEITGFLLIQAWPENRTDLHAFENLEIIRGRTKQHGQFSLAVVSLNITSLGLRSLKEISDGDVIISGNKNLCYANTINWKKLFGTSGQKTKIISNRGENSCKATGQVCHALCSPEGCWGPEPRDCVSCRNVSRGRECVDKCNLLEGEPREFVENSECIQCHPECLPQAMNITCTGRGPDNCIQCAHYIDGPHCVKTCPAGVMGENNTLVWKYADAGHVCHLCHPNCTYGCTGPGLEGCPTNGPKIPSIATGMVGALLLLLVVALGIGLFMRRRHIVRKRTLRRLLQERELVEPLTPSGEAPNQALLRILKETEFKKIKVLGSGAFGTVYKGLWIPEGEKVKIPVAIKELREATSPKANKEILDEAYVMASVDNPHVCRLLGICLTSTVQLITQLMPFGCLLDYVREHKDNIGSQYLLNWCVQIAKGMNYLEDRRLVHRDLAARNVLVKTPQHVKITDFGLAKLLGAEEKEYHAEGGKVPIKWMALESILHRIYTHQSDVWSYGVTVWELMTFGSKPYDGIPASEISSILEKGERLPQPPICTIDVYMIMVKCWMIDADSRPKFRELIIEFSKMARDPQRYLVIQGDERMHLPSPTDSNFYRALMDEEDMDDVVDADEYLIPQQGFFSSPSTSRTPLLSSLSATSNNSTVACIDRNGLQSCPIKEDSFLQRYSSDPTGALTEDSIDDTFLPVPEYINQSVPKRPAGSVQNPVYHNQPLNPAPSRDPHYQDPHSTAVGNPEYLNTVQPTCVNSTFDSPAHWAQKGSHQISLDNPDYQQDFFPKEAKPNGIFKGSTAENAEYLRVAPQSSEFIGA

## CC(=O)C1C(c2ccc([N+](=O)[O-])cc2)=NN(C=O)C1c1cccs1 (stereo not drawn) [Compound 14, 4-Acetyl-3-(4-nitrophenyl)-5-(thiophen-2-yl)-4,5-dihydro-1H-pyrazole-1-carbaldehyde]
MCF-7 [1]
  IC50: 12.9 µM
HepG2 [2]
  IC50: 19.6 µM
wild-type EGFR
  IC50: 47.6 µM
EGFR mutant (T790M)
  IC50: 48.3 µM
VEGFR-2
  IC50: 327 µM
MCF-7 cells [3]
  Cell cycle analysis Comment: Cell cycle arrest at G1phase
MCF-7 cells [3]; control 16.74%
  Cell cycle analysis %G2/M: 6.62%
MCF-7 cells [3]; control 27.95%
  Cell cycle analysis %S: 19.22%
MCF-7 cells [3]; control 55.31%
  Cell cycle analysis %G0-G1: 74.16%
MCF-7 cells [4]; control 0.14%
  Apoptosis Late: 7.1%
MCF-7 cells [4]; control 0.69%
  Apoptosis Early: 15.02%
MCF-7 cells [4]; control 2.36%
  Necrosis: 4.2%

## O=C(O)c1ccccc1C(=O)N1N=C(c2ccc([N+](=O)[O-])cc2)CC1c1cccs1 (stereo not drawn) [Compound 8, 2-(3-(4-nitrophenyl)-5-(thiophen-2-yl)-4,5-dihydro-1H-pyrazole-1-carbonyl)benzoic acid]
MCF-7 [1]
  IC50: 8.08 µM
HepG2 [2]
  IC50: 13.5 µM
wild-type EGFR
  IC50: 66.6 µM
EGFR mutant (T790M)
  IC50: 121 µM
VEGFR-2
  IC50: 85.1 µM

## O=C(O)n1nc(-c2ccc([N+](=O)[O-])cc2)cc1-c1cccs1 [Compound 13, 3-(4-nitrophenyl)-5-(thiophen-2-yl)-1H-pyrazole-1-carboxylic acid]
MCF-7 [1]
  IC50: 37.1 µM
HepG2 [2]
  IC50: 41.4 µM

## COc1cccc2c1C(=O)c1c(O)c3c(c(O)c1C2=O)C[C@@](O)(C(=O)CO)C[C@@H]3O[C@H]1C[C@H](N)[C@H](O)[C@H](C)O1 [Doxorubicin, doxorubicin, reference compound]
HepG2 [2]
  IC50: 4.5 µM

## O=C(C=Cc1cccs1)c1ccc([N+](=O)[O-])cc1 [Compound 1, 1-(4-nitrophenyl)-3-(thiophen-2-yl)prop-2-en-1-one]
MCF-7 [1]
  IC50: > 100 µM
HepG2 [2]
  IC50: 90.5 µM

## O=C(CCl)N1N=C(c2ccc([N+](=O)[O-])cc2)CC1c1cccs1 (stereo not drawn) [Compound 7, 2-chloro-1-(3-(4-nitrophenyl)-5-(thiophen-2-yl)-4,5-dihydro-1H-pyrazol-1-yl)ethan-1-one]
MCF-7 [1]
  IC50: 75 µM
HepG2 [2]
  IC50: 78.1 µM

## O=[N+]([O-])c1ccc(C2=Nc3ccccc3NC(c3cccs3)C2)cc1 (stereo not drawn) [Compound 5, 4-(4-nitrophenyl)-2-(thiophen-2-yl)-2,3-dihydro-1H-benzo[b][1,4] diazepine]
MCF-7 [1]
  IC50: 75.5 µM
HepG2 [2]
  IC50: 62.6 µM

## C#Cc1cccc(Nc2ncnc3cc(OCCOC)c(OCCOC)cc23)c1 [Erlotinib, erlotinib]
MCF-7 [5]
  IC50: 8.2 µM
HepG2 [6]
  IC50: 7.73 µM

## O=[N+]([O-])c1ccc(C2=NN(CN3N=C(c4ccc([N+](=O)[O-])cc4)CC3c3cccs3)C(c3cccs3)C2)cc1 (stereo not drawn) [Compound 11, bis(3-(4-nitrophenyl)-5-(thiophen-2-yl)-4,5-dihydro-1H-pyrazol-1-yl)methane]
MCF-7 [1]
  IC50: 87.4 µM
HepG2 [2]
  IC50: 74.2 µM

## O=CN1N=C(c2ccc([N+](=O)[O-])cc2)CC1c1cccs1 (stereo not drawn) [Compound 4, 3-(4-nitrophenyl)-5-(thiophen-2-yl)-4,5-dihydro-1H-pyrazole-1-carbaldehyde]
MCF-7 [1]
  IC50: 92.1 µM
HepG2 [2]
  IC50: 84 µM

## CC(=O)N1N=C(c2ccc([N+](=O)[O-])cc2)CC1c1cccs1 (stereo not drawn) [Compound 3, 1-(3-(4-nitrophenyl)-5-(thiophen-2-yl)-4,5-dihydro-1H-pyrazol-1-yl) ethan-1-one]
MCF-7 [1]
  IC50: 43.6 µM
HepG2 [2]
  IC50: 53.2 µM

## O=[N+]([O-])c1ccc(C2=NNC(c3cccs3)C2)cc1 (stereo not drawn) [Compound 2, 3-(4-nitrophenyl)-5-(thiophen-2-yl)-4,5-dihydro-1H-pyrazole]
MCF-7 [1]
  IC50: 6.57 µM
HepG2 [2]
  IC50: 8.86 µM
wild-type EGFR
  IC50: 59.5 µM
EGFR mutant (T790M)
  IC50: 65.1 µM
VEGFR-2
  IC50: 889 µM

## O=C(O)CCC(=O)N1N=C(c2ccc([N+](=O)[O-])cc2)CC1c1cccs1 (stereo not drawn) [Compound 9, 4-(3-(4-nitrophenyl)-5-(thiophen-2-yl)-4,5-dihydro-1H-pyrazol-1-yl)-4-oxobutanoic acid]
MCF-7 [1]
  IC50: 17.8 µM
HepG2 [2]
  IC50: 22.6 µM

## COC(=O)/C=C(\C(=O)OC)N1N=C(c2ccc([N+](=O)[O-])cc2)CC1c1cccs1 (stereo not drawn) [Compound 12, dimethyl 2-(3-(4-nitrophenyl)-5-(thiophen-2-yl)-4,5-dihydro-1H-pyrazol-1-yl)maleate]
MCF-7 [1]
  IC50: 51.7 µM
HepG2 [2]
  IC50: 59.3 µM

## N#Cc1c(-c2cccs2)cc(-c2ccc([N+](=O)[O-])cc2)[nH]c1=O [Compound 6, 6-(4-nitrophenyl)-2-oxo-4-(thiophen-2-yl)-1,2-dihydropyridine-3-carbonitrile]
MCF-7 [1]
  IC50: 23.3 µM
HepG2 [2]
  IC50: 28.9 µM

## Cc1ccc(-c2nnc(SCC(=O)N3N=C(c4cccs4)CC3c3ccc(Cl)cc3)o2)cc1 (stereo not drawn) [compound II]
[7]
  IC50: 12 to 17 µM

## O=C(O)C=CC(=O)N1N=C(c2ccc([N+](=O)[O-])cc2)CC1c1cccs1 (stereo not drawn) [Compound 10, 4-(3-(4-nitrophenyl)-5-(thiophen-2-yl)-4,5-dihydro-1H-pyrazol-1-yl)-4-oxobut-2-enoic acid]
MCF-7 [1]
  IC50: 32.6 µM
HepG2 [2]
  IC50: 36.4 µM
